According to the NIST ThermoML archive (doi:10.1021/acs.jced.5b00105):

Test: xn = mol fraction of the nth substance listed
Details: for surface tension liquid-gas: Drop volume; for viscosity / mass density: 100 kPa, Liquid; for viscosity: Concentric cylinders viscometry; for mass density: Vibrating tube method

CCC1CCCCC1 [ethylcyclohexane] + CC(C)CC(C)(C)C
Details	mass density [kg/m3]	surface tension liquid-gas [mN/m]	viscosity [mPa·s]
293.15 K, x1 = 0.1	700.76	19.51	0.54
293.15 K, x1 = 0.1999	–	19.99	–
293.15 K, x1 = 0.2	709.8	–	0.565
293.15 K, x1 = 0.3	–	20.57	–
293.15 K, x1 = 0.3003	719.07	–	0.591
293.15 K, x1 = 0.3997	728.38	–	0.619
293.15 K, x1 = 0.4	–	21.13	–
293.15 K, x1 = 0.5	–	21.74	–
293.15 K, x1 = 0.5002	737.96	–	0.65
293.15 K, x1 = 0.6001	–	22.44	–
293.15 K, x1 = 0.6005	747.68	–	0.684
293.15 K, x1 = 0.7002	757.5	–	0.719
293.15 K, x1 = 0.7004	–	23.16	–
293.15 K, x1 = 0.8001	–	24	–
293.15 K, x1 = 0.8003	767.49	–	0.758
293.15 K, x1 = 0.8994	–	24.75	–
293.15 K, x1 = 0.8997	777.58	–	0.801
293.15 K, x1 = 1	787.98	25.47	0.848
298.15 K, x1 = 0.1	696.71	18.91	0.513
298.15 K, x1 = 0.1999	–	19.38	–
298.15 K, x1 = 0.2	705.71	–	0.536
298.15 K, x1 = 0.3	–	19.88	–
298.15 K, x1 = 0.3003	715.02	–	0.56
298.15 K, x1 = 0.3997	724.34	–	0.586
298.15 K, x1 = 0.4	–	20.4	–
298.15 K, x1 = 0.5	–	21.01	–
298.15 K, x1 = 0.5002	733.9	–	0.613
298.15 K, x1 = 0.6001	–	21.67	–
298.15 K, x1 = 0.6005	743.64	–	0.644
298.15 K, x1 = 0.7002	753.47	–	0.677
298.15 K, x1 = 0.7004	–	22.45	–
298.15 K, x1 = 0.8001	–	23.23	–
298.15 K, x1 = 0.8003	763.46	–	0.712
298.15 K, x1 = 0.8994	–	24	–
298.15 K, x1 = 0.8997	773.57	–	0.751
298.15 K, x1 = 1	783.97	24.76	0.793
303.15 K, x1 = 0.1	692.57	18.49	0.489
303.15 K, x1 = 0.2	701.62	18.96	0.509
303.15 K, x1 = 0.3003	710.92	19.61	0.531
303.15 K, x1 = 0.3997	720.25	19.97	0.555
303.15 K, x1 = 0.5002	729.84	20.62	0.581
303.15 K, x1 = 0.6005	739.57	21.24	0.609
303.15 K, x1 = 0.7002	749.4	22.12	0.638
303.15 K, x1 = 0.8003	759.41	22.89	0.671
303.15 K, x1 = 0.8997	769.52	23.75	0.706
303.15 K, x1 = 1	779.93	24.55	0.745
308.15 K, x1 = 0.1	688.43	18	0.466
308.15 K, x1 = 0.1999	–	18.45	–
308.15 K, x1 = 0.2	697.49	–	0.485
308.15 K, x1 = 0.3	–	18.91	–
308.15 K, x1 = 0.3003	706.8	–	0.505
308.15 K, x1 = 0.3997	716.14	–	0.527
308.15 K, x1 = 0.4	–	19.39	–
308.15 K, x1 = 0.5	–	19.98	–
308.15 K, x1 = 0.5002	725.74	–	0.55
308.15 K, x1 = 0.6001	–	20.65	–
308.15 K, x1 = 0.6005	735.47	–	0.577
308.15 K, x1 = 0.7002	745.32	–	0.604
308.15 K, x1 = 0.7004	–	21.4	–
308.15 K, x1 = 0.8001	–	22.11	–
308.15 K, x1 = 0.8003	755.35	–	0.634
308.15 K, x1 = 0.8994	–	22.94	–
308.15 K, x1 = 0.8997	765.46	–	0.666
308.15 K, x1 = 1	775.88	23.74	0.702
313.15 K, x1 = 0.1	–	–	0.446
313.15 K, x1 = 0.1012	684.26	–	–
313.15 K, x1 = 0.2	–	–	0.464
313.15 K, x1 = 0.2003	693.35	–	–
313.15 K, x1 = 0.3001	702.64	–	–
313.15 K, x1 = 0.3003	–	–	0.482
313.15 K, x1 = 0.3997	–	–	0.503
313.15 K, x1 = 0.4019	712.01	–	–
313.15 K, x1 = 0.5002	–	–	0.524
313.15 K, x1 = 0.5008	721.61	–	–
313.15 K, x1 = 0.6	731.36	–	–
313.15 K, x1 = 0.6005	–	–	0.548
313.15 K, x1 = 0.6998	741.23	–	–
313.15 K, x1 = 0.7002	–	–	0.573
313.15 K, x1 = 0.8	751.26	–	–
313.15 K, x1 = 0.8003	–	–	0.601
313.15 K, x1 = 0.8997	–	–	0.63
313.15 K, x1 = 0.9	761.39	–	–
313.15 K, x1 = 1	771.82	–	0.663
318.15 K, x1 = 0.1	–	–	0.429
318.15 K, x1 = 0.1012	680.05	–	–
318.15 K, x1 = 0.2	–	–	0.445
318.15 K, x1 = 0.2003	689.16	–	–
318.15 K, x1 = 0.3001	698.38	–	–
318.15 K, x1 = 0.3003	–	–	0.461
318.15 K, x1 = 0.3997	–	–	0.481
318.15 K, x1 = 0.4019	707.8	–	–
318.15 K, x1 = 0.5002	–	–	0.5
318.15 K, x1 = 0.5008	717.38	–	–
318.15 K, x1 = 0.6	727.09	–	–
318.15 K, x1 = 0.6005	–	–	0.522
318.15 K, x1 = 0.6998	737.02	–	–
318.15 K, x1 = 0.7002	–	–	0.548
318.15 K, x1 = 0.8	747.05	–	–
318.15 K, x1 = 0.8003	–	–	0.573
318.15 K, x1 = 0.8997	–	–	0.598
318.15 K, x1 = 0.9	757.21	–	–
318.15 K, x1 = 1	767.69	–	0.628
323.15 K, x1 = 0.1	–	–	0.412
323.15 K, x1 = 0.1012	675.82	–	–
323.15 K, x1 = 0.2	–	–	0.427
323.15 K, x1 = 0.2003	684.95	–	–
323.15 K, x1 = 0.3001	694.19	–	–
323.15 K, x1 = 0.3003	–	–	0.442
323.15 K, x1 = 0.3997	–	–	0.46
323.15 K, x1 = 0.4019	703.63	–	–
323.15 K, x1 = 0.5002	–	–	0.478
323.15 K, x1 = 0.5008	713.22	–	–
323.15 K, x1 = 0.6	722.95	–	–
323.15 K, x1 = 0.6005	–	–	0.499
323.15 K, x1 = 0.6998	732.88	–	–
323.15 K, x1 = 0.7002	–	–	0.522
323.15 K, x1 = 0.8	742.93	–	–
323.15 K, x1 = 0.8003	–	–	0.546
323.15 K, x1 = 0.8997	–	–	0.569
323.15 K, x1 = 0.9	753.1	–	–
323.15 K, x1 = 1	763.59	–	0.597
333.15 K, x1 = 0.1	–	–	0.383
333.15 K, x1 = 0.1012	667.27	–	–
333.15 K, x1 = 0.2	–	–	0.396
333.15 K, x1 = 0.2003	676.43	–	–
333.15 K, x1 = 0.3001	685.73	–	–
333.15 K, x1 = 0.3003	–	–	0.409
333.15 K, x1 = 0.3997	–	–	0.425
333.15 K, x1 = 0.4019	695.2	–	–
333.15 K, x1 = 0.5002	–	–	0.44
333.15 K, x1 = 0.5008	704.82	–	–
333.15 K, x1 = 0.6	714.58	–	–
333.15 K, x1 = 0.6005	–	–	0.457
333.15 K, x1 = 0.6998	724.55	–	–
333.15 K, x1 = 0.7002	–	–	0.478
333.15 K, x1 = 0.8	734.62	–	–
333.15 K, x1 = 0.8003	–	–	0.498
333.15 K, x1 = 0.8997	–	–	0.518
333.15 K, x1 = 0.9	744.81	–	–
333.15 K, x1 = 1	755.35	–	0.541
343.15 K, x1 = 0.1	–	–	0.358
343.15 K, x1 = 0.1012	658.57	–	–
343.15 K, x1 = 0.2	–	–	0.369
343.15 K, x1 = 0.2003	667.78	–	–
343.15 K, x1 = 0.3001	677.13	–	–
343.15 K, x1 = 0.3003	–	–	0.38
343.15 K, x1 = 0.3997	–	–	0.395
343.15 K, x1 = 0.4019	686.64	–	–
343.15 K, x1 = 0.5002	–	–	0.408
343.15 K, x1 = 0.5008	696.31	–	–
343.15 K, x1 = 0.6	706.12	–	–
343.15 K, x1 = 0.6005	–	–	0.423
343.15 K, x1 = 0.6998	716.12	–	–
343.15 K, x1 = 0.7002	–	–	0.441
343.15 K, x1 = 0.8	726.23	–	–
343.15 K, x1 = 0.8003	–	–	0.458
343.15 K, x1 = 0.8997	–	–	0.476
343.15 K, x1 = 0.9	736.46	–	–
343.15 K, x1 = 1	747.03	–	0.496
